These results are taken from patent US20050101595A1, “N-containing cycloalkyl-substituted amino-thiazole derivatives and pharmaceutical compositions for inhibiting cell proliferation and methods for their use” (PFIZER INC., priority 2003, published 2005).

The structures appear in SMILES notation.

For experiment [1], the target named is CDK2/Cyclin A (Homo sapiens, UniProt P24941). In words: Inhibition of CDK2/Cyclin A Retinoblastoma Kinase Activity. The format is biochemical. The conditions noted are these: read-out: % inhibition of CDK2 (@ 0.05 μM), compound at 0.05 μM. As for the experimental part:
Cyclin-dependent kinase activity was measured by quantifying the enzyme-catalyzed, time-dependent incorporation of radioactive phosphate from [^32P]ATP or [^33P]ATP into a protein substrate. Unless noted otherwise, assays were performed in 96-well plates in a total volume of 50 μL, in the presence of 10 mM HEPES (N-[2-hydroxyethyl]piperazine-N′-[2-ethanesulfonic acid]) (pH 7.4), 10 mM MgCl2, 25 μM adenosine triphosphate (ATP), 1 mg/mL ovalbumin, 5 μg/mL leupeptin, 1 mM dithiothreitol, 10 mM β-glycerophosphate, 0.1 mM sodium vanadate, 1 mM sodium fluoride, 2.5 mM ethylene glycol-bis(β-aminoethyl ether)-N,N,N′N′-tetraacetic acid (EGTA), 2% (v/v) dimethylsulfoxide, and 0.03-0.4 μCi [^32/33P]ATP per reaction. Reactions were initiated with enzyme, incubated at 30° C., and terminated after 20 minutes by the addition of ethylenediaminetetraacetic acid (EDTA) to 250 mM. The phosphorylated substrate was then captured on a nitrocellulose or phosphocellulose membrane using a 96-well filtration manifold, and unincorporated radioactivity was removed by repeated washing with 0.85% phosphoric acid. Radioactivity was quantified by exposing the dried membranes to a phosphorimager.
Inhibition was measured relative to control wells that contained all reaction components including 2% (v/v) DMSO but no compound, after subtraction of background radioactivity measured in the absence of enzyme. Apparent Ki values of discrete compounds were measured by assaying enzyme activity in the presence of different inhibitor compound concentrations and subtracting the background radioactivity measured in the absence of enzyme. The kinetic parameters (kcat, Km for ATP) were measured for each enzyme under the usual assay conditions by determining the dependence of initial rates on ATP concentration. Inhibition data were fit to an equation for competitive inhibition using Kaleidagraph (Synergy Software), or were fit to an equation for competitive tight-binding inhibition using the software KineTic (BioKin, Ltd.).
Inhibition of CDK2/Cyclin A Retinoblastoma Kinase Activity:
CDK2 was purified using published methodology (Rosenblatt et al., “Purification and Crystallization of Human Cyclin-dependent Kinase 2,” J. Mol. Biol., vol. 230, 1993, pp. 1317-1319) from insect cells that had been infected with a baculovirus expression vector. […] A complex of CDK2 and proteolyzed cyclin A was prepared and purified by gel filtration. The substrate for this assay was the same Rb substrate fragment used for the CDK4 assays, and the methodology of the CDK2/delta cyclin A and the CDK4/delta cyclin D3 assays was essentially the same, except that CDK2 was present at 10 nM or 19 nM. The duration of the assay was 60 or 75 minutes, during which the time-dependence of product formation was linear and initial rate conditions were met. And, the percent inhibitions of the compounds of Example O through Example R were calculated as described above and shown in Table 2.

For experiment [2], the system named is HCT-116 cell line. In words: Inhibition of cell growth, tetrazolium salt (MTT) assay. The format is cell-based. The settings on record: Homo sapiens, HCT-116, HCT-116 cells; MTT; compound at 0.175 uM. Put shortly:
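McCoy's 5A cultures; 4 h pre-incubation; compound dilutions in 0.5% v/v DMSO; 3–5 d, 37° C, 5% CO2; MTT 0.2 mg/mL final, 4 h; formazan dissolved in DMSO, A540; vs 0.5% DMSO vehicle.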

`Cc1cnc(CNCCCS(=O)(=O)N2CCC(Nc3nc(N)c(C(=O)c4c(F)cccc4F)s3)CC2)cn1` [Example V43]: the inhibition at 0.05 µM in experiment [1] came out at 81%. Besides, the inhibition at 0.175 µM in experiment [2] came out at 17%.
With `Cc1cc(NCCCS(=O)(=O)N2CCC(Nc3nc(N)c(C(=O)c4c(F)cccc4F)s3)CC2)no1` [Example V44], in experiment [1], the inhibition at 0.05 µM came out at 80%. For the same compound, the inhibition at 0.175 µM in experiment [2] is 17%.
The matching figures for `NC(=O)C1CCN(CCCS(=O)(=O)N2CCC(Nc3nc(N)c(C(=O)c4c(F)cccc4F)s3)CC2)CC1` [Example V45]: 83% and 25%.
The matching figures for `CC1(C)CCCN(CCCS(=O)(=O)N2CCC(Nc3nc(N)c(C(=O)c4c(F)cccc4F)s3)CC2)C1` [Example V46]: 77% and 71%.
The matching figures for `Nc1ccc(CNCCCS(=O)(=O)N2CCC(Nc3nc(N)c(C(=O)c4c(F)cccc4F)s3)CC2)cc1` [Example V47]: 85% and 13%.
`Nc1nc(NC2CCN(S(=O)(=O)CCCNCC(O)CO)CC2)sc1C(=O)c1c(F)cccc1F` (stereo not drawn) [Example V48]: in experiment [1], the inhibition at 0.05 µM came out at 79%. The inhibition at 0.175 µM in experiment [2] turned out to be 7%.
As to `Nc1nc(NC2CCN(S(=O)(=O)CCCNCCC3=CCCCC3)CC2)sc1C(=O)c1c(F)cccc1F` [Example V49], in experiment [1], the inhibition at 0.05 µM was determined as 91%. In addition, the inhibition at 0.175 µM in experiment [2] turned out to be 38%.
On to `COC(=O)CNCCCS(=O)(=O)N1CCC(Nc2nc(N)c(C(=O)c3c(F)cccc3F)s2)CC1` [Example V50], for which the inhibition at 0.05 µM in experiment [1] turned out to be 81%. Besides, the inhibition at 0.175 µM in experiment [2] amounted to 0%.
The corresponding values for `CCN(CCO)CCCS(=O)(=O)N1CCC(Nc2nc(N)c(C(=O)c3c(F)cccc3F)s2)CC1` [Example V51] are 79% and 0%.
The matching figures for `Nc1nc(NC2CCN(S(=O)(=O)CCCNCc3ccc(F)cc3)CC2)sc1C(=O)c1c(F)cccc1F` [Example V52]: 92% and 65%.
Consider `CC(NCCCS(=O)(=O)N1CCC(Nc2nc(N)c(C(=O)c3c(F)cccc3F)s2)CC1)c1ccccc1` (stereo not drawn) [Example V53], for which, in experiment [1], the inhibition at 0.05 µM was 91%. In experiment [2], the inhibition at 0.175 µM is 75%.
With `CN(C)CCNCCCS(=O)(=O)N1CCC(Nc2nc(N)c(C(=O)c3c(F)cccc3F)s2)CC1` [Example V54], in experiment [1], the inhibition at 0.05 µM stood at 75%. Further, the inhibition at 0.175 µM in experiment [2] was found to be 0%.
The corresponding values for `Nc1nc(NC2CCN(S(=O)(=O)CCCN3CCCCC3)CC2)sc1C(=O)c1c(F)cccc1F` [Example V55] are 84% and 56%.
The matching figures for `CCCNCCCS(=O)(=O)N1CCC(Nc2nc(N)c(C(=O)c3c(F)cccc3F)s2)CC1` [Example V56]: 83% and 19%.
The matching figures for `CCN(CC)CCCS(=O)(=O)N1CCC(Nc2nc(N)c(C(=O)c3c(F)cccc3F)s2)CC1` [Example V57]: 77% and 33%.
For `COCC(C)NCCCS(=O)(=O)N1CCC(Nc2nc(N)c(C(=O)c3c(F)cccc3F)s2)CC1` (stereo not drawn) [Example V58], in experiment [1], the inhibition at 0.05 µM amounted to 80%. Further, the inhibition at 0.175 µM in experiment [2] was 10%.
The matching figures for `CCN1CCN(CCCS(=O)(=O)N2CCC(Nc3nc(N)c(C(=O)c4c(F)cccc4F)s3)CC2)CC1` [Example V59]: 72% and 7%.
The corresponding values for `CC(C)CCNCCCS(=O)(=O)N1CCC(Nc2nc(N)c(C(=O)c3c(F)cccc3F)s2)CC1` [Example V60] are 84% and 18%.
The corresponding values for `CCCN(CCCS(=O)(=O)N1CCC(Nc2nc(N)c(C(=O)c3c(F)cccc3F)s2)CC1)CC1CC1` [Example V61] are 81% and 65%.
Turning to `Cc1cccc(NCCCS(=O)(=O)N2CCC(Nc3nc(N)c(C(=O)c4c(F)cccc4F)s3)CC2)n1` [Example V62], the inhibition at 0.05 µM in experiment [1] is 91%. Further, the inhibition at 0.175 µM in experiment [2] is 0%.
The matching figures for `Nc1nc(NC2CCN(S(=O)(=O)CCCNC3CCC3)CC2)sc1C(=O)c1c(F)cccc1F` [Example V63]: 78% and 13%.
For the compound `Nc1nc(NC2CCN(S(=O)(=O)CCCN3CCCC3)CC2)sc1C(=O)c1c(F)cccc1F` [Example V64], the inhibition at 0.05 µM in experiment [1] is 17%. Moreover, in experiment [2], the inhibition at 0.175 µM was 0%.
The corresponding values for `C#CCN(C)CCCS(=O)(=O)N1CCC(Nc2nc(N)c(C(=O)c3c(F)cccc3F)s2)CC1` [Example V65] are 79% and 30%.
The corresponding values for `CN(CCC#N)CCCS(=O)(=O)N1CCC(Nc2nc(N)c(C(=O)c3c(F)cccc3F)s2)CC1` [Example V66] are 82% and 10%.
The matching figures for `COCCNCCCS(=O)(=O)N1CCC(Nc2nc(N)c(C(=O)c3c(F)cccc3F)s2)CC1` [Example V67]: 87% and 21%.
In the case of `Nc1nc(NC2CCN(S(=O)(=O)CCCN3CCC(O)C3)CC2)sc1C(=O)c1c(F)cccc1F` (stereo not drawn) [Example V68], the inhibition at 0.05 µM in experiment [1] was found to be 85%. For the same compound, the inhibition at 0.175 µM in experiment [2] stood at 10%.
The corresponding values for `Nc1nc(NC2CCN(S(=O)(=O)CCCN3CCCCCC3)CC2)sc1C(=O)c1c(F)cccc1F` [Example V69] are 81% and 54%.
The matching figures for `CC(C)[C@H](CO)NCCCS(=O)(=O)N1CCC(Nc2nc(N)c(C(=O)c3c(F)cccc3F)s2)CC1` [Example V70]: 89% and 2%.
Consider `Nc1nc(NC2CCN(S(=O)(=O)CCCN[C@@H]3CCCC[C@@H]3CO)CC2)sc1C(=O)c1c(F)cccc1F` [Example V71], for which the inhibition at 0.05 µM in experiment [1] turned out to be 85%. In experiment [2], the inhibition at 0.175 µM worked out at 5%.
For the compound `Nc1nc(NC2CCN(S(=O)(=O)CCCNC3CCCCC3)CC2)sc1C(=O)c1c(F)cccc1F` [Example V72], the inhibition at 0.05 µM in experiment [1] is 90%. Besides, in experiment [2], the inhibition at 0.175 µM was 14%.
In the case of `Nc1nc(NC2CCN(S(=O)(=O)CCCNCCCN3CCCC3)CC2)sc1C(=O)c1c(F)cccc1F` [Example V73], the inhibition at 0.05 µM in experiment [1] came to 82%. Besides, the inhibition at 0.175 µM in experiment [2] is 0%.
The matching figures for `C=CCN1CCN(CCCS(=O)(=O)N2CCC(Nc3nc(N)c(C(=O)c4c(F)cccc4F)s3)CC2)CC1` [Example V74]: 82% and 44%.
The matching figures for `Nc1nc(NC2CCN(S(=O)(=O)CCCNC3CCCC3)CC2)sc1C(=O)c1c(F)cccc1F` [Example V75]: 88% and 19%.
`Nc1nc(NC2CCN(S(=O)(=O)CCCNCCc3cccs3)CC2)sc1C(=O)c1c(F)cccc1F` [Example V76]: the inhibition at 0.05 µM in experiment [1] amounted to 89%. Besides, in experiment [2], the inhibition at 0.175 µM is 44%.
For the compound `Nc1nc(NC2CCN(S(=O)(=O)CCCN3CCCC(O)C3)CC2)sc1C(=O)c1c(F)cccc1F` (stereo not drawn) [Example V77], the inhibition at 0.05 µM in experiment [1] is 72%. For the same compound, the inhibition at 0.175 µM in experiment [2] was 7%.
The matching figures for `Nc1nc(NC2CCN(S(=O)(=O)CCCN(CCO)CCO)CC2)sc1C(=O)c1c(F)cccc1F` [Example V78]: 80% and 7%.
